Data published in US10807978B2, “Process for preparation of palbociclib” (DR. REDDY'S LABORATORIES LIMITED, priority 2016, dated 2020).

Experiment: Surface Area (BET method)
Assay type: physicochemical
Details: isolated palbociclib free base solid

Row | Surface Area (BET method) [m^2/g] | Structure (SMILES)
1 | 9.38 | CC(=O)c1c(C)c2cnc(Nc3ccc(N4CCNCC4)cn3)nc2n(C2CCCC2)c1=O [Example 11, 6-acetyl-8-cyclopentyl-5-methyl-2-{[5-(piperazin-1-yl)pyridin-2yl]amino}-pyrido[2,3-d]pyrimidin-7(8H)-one]
2 | 3.61 | CC(=O)c1c(C)c2cnc(Nc3ccc(N4CCNCC4)cn3)nc2n(C2CCCC2)c1=O [Example 9, 6-acetyl-8-cyclopentyl-5-methyl-2-{[5-(piperazin-1-yl)pyridin-2yl]amino}-pyrido[2,3-d]pyrimidin-7(8H)-one]
